According to the supplement of paper PMC4862054:

Assays:
Details in all cases: incubation time: 72 h
BT-474 [1] = test: normalised response (% of control), CellTox Green; higher = less cell death (100 = DMSO, 0 = benzethonium chloride kill control)
Method in brief: (§1)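 Each value is the plate-normalised signal at one concentration of the series. Breast cancer cell lines (20 µl suspension) were incubated 72 h in 384-well plates with compound at 5 concentrations in 10-fold steps over a compound-specific 10,000-fold range. CellTox Green and then CellTiter-Glo were read, and each plate was scaled to 0.1 % DMSO (100) and a positive kill control (0).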

BT-549 [2] = test: as above
Method in brief: as §1

CAL-120 [3] = test: as above
Method in brief: as §1

CAL-148 [4] = test: as above
Method in brief: as §1

CAL-51 [5] = test: as above
Method in brief: as §1

CAL-85-1 [6] = test: as above
Method in brief: as §1

DU-4475 [7] = test: as above
Method in brief: as §1

HCC1143 [8] = test: as above
Method in brief: as §1

HCC1599 [9] = test: as above
Method in brief: as §1

HCC1937 [10] = test: as above
Method in brief: as §1

HDQ-P1 [11] = test: as above
Method in brief: as §1

MCF-10A [12] = test: as above
Method in brief: as §1

MDA-MB-231 [13] = test: as above
Method in brief: as §1

MDA-MB-436 [14] = test: as above
Method in brief: as §1

MDA-MB-453 [15] = test: as above
Method in brief: as §1

MDA-MB-468 [16] = test: as above
Method in brief: as §1

MFM-223 [17] = test: as above
Method in brief: as §1

BT-474 [18] = test: normalised response (% of control), CellTiter-Glo; higher = more viable cells (100 = DMSO, 0 = benzethonium chloride kill control)
Method in brief: as §1

BT-549 [19] = test: as above
Method in brief: as §1

CAL-120 [20] = test: as above
Method in brief: as §1

CAL-148 [21] = test: as above
Method in brief: as §1

CAL-51 [22] = test: as above
Method in brief: as §1

CAL-85-1 [23] = test: as above
Method in brief: as §1

DU-4475 [24] = test: as above
Method in brief: as §1

HCC1143 [25] = test: as above
Method in brief: as §1

HCC1599 [26] = test: as above
Method in brief: as §1

HCC1937 [27] = test: as above
Method in brief: as §1

HDQ-P1 [28] = test: as above
Method in brief: as §1

Hs578T [29] = test: as above
Method in brief: as §1

MCF-10A [30] = test: as above
Method in brief: as §1

MDA-MB-231 [31] = test: as above
Method in brief: as §1

MDA-MB-436 [32] = test: as above
Method in brief: as §1

MDA-MB-453 [33] = test: as above
Method in brief: as §1

MDA-MB-468 [34] = test: as above
Method in brief: as §1

MFM-223 [35] = test: as above
Method in brief: as §1

SK-BR-3 = test: as above
Method in brief: as §1

Hs578T [36] = test: normalised response (% of control), CellTox Green; higher = less cell death (100 = DMSO, 0 = benzethonium chloride kill control)
Method in brief: as §1

Compound | normalised response (BT-474 [1]) [%] | normalised response (BT-549 [2]) [%] | normalised response (CAL-120 [3]) [%] | normalised response (CAL-148 [4]) [%] | normalised response (CAL-51 [5]) [%] | normalised response (CAL-85-1 [6]) [%] | normalised response (DU-4475 [7]) [%] | normalised response (HCC1143 [8]) [%] | normalised response (HCC1599 [9]) [%] | normalised response (HCC1937 [10]) [%] | normalised response (HDQ-P1 [11]) [%] | normalised response (MCF-10A [12]) [%] | normalised response (MDA-MB-231 [13]) [%] | normalised response (MDA-MB-436 [14]) [%] | normalised response (MDA-MB-453 [15]) [%] | normalised response (MDA-MB-468 [16]) [%] | normalised response (MFM-223 [17]) [%] | normalised response (BT-474 [18]) [%] | normalised response (BT-549 [19]) [%] | normalised response (CAL-120 [20]) [%] | normalised response (CAL-148 [21]) [%] | normalised response (CAL-51 [22]) [%] | normalised response (CAL-85-1 [23]) [%] | normalised response (DU-4475 [24]) [%] | normalised response (HCC1143 [25]) [%] | normalised response (HCC1599 [26]) [%] | normalised response (HCC1937 [27]) [%] | normalised response (HDQ-P1 [28]) [%] | normalised response (Hs578T [29]) [%] | normalised response (MCF-10A [30]) [%] | normalised response (MDA-MB-231 [31]) [%] | normalised response (MDA-MB-436 [32]) [%] | normalised response (MDA-MB-453 [33]) [%] | normalised response (MDA-MB-468 [34]) [%] | normalised response (MFM-223 [35]) [%] | normalised response (SK-BR-3) [%] | normalised response (Hs578T [36]) [%]
CN[C@@H](C)C(=O)N[C@H]1CN(C(=O)CC(C)C)CC[C@H]2CC[C@@H](C(=O)NC(c3ccccc3)c3ccccc3)N2C1=O [AT-406] (1000 nM) | 89.7 | 53.4 | 76.4 | 55.1 | 97.2 | 24 | 101 | 107 | 93.1 | 101 | 79.6 | 109 | -42.1 | 86.1 | 94.9 | 109 | 54.2 | 24.8 | 59.7 | 85.6 | 82.4 | 98.2 | 63.3 | 101 | 95.6 | 106 | 94 | 83.1 | 95.7 | 107 | 38.8 | 99.1 | 78.5 | 71.3 | 101 | 99.6 | –
CC1(COc2ccc3c(c2)ncn3-c2ccc3cccc(N4CCC(N)CC4)c3n2)COC1 [Crenolanib] (1000 nM) | 91.4 | 71.2 | 99.5 | 97.7 | 85.9 | 104 | 101 | 99 | 94.7 | 51.6 | 71 | 108 | 124 | 50.8 | 112 | – | 100 | 111 | 82.5 | 86.7 | 109 | 86.2 | 117 | 96.2 | 101 | 110 | 100 | 108 | 96.4 | 113 | 122 | 103 | 114 | 101 | 102 | 123 | 83.4
CC(C)(C)c1nc(-c2cccc(NS(=O)(=O)c3c(F)cccc3F)c2F)c(-c2ccnc(N)n2)s1 [Dabrafenib] (250 nM) | 99.1 | 82.7 | -30.1 | 106 | 110 | 110 | 83 | 111 | 100 | 106 | 114 | 94.2 | 107 | 101 | 105 | 117 | 103 | 97.9 | 91 | 36.6 | 101 | 129 | 99.8 | 8.24 | 106 | 107 | 105 | 115 | 90.8 | 125 | 106 | 106 | 92.3 | 92 | 107 | 105 | –
Cc1nc(C(=O)NCC(=O)O)c(O)c2ccc(Oc3ccccc3)cc12 [FG-4592] (1000 nM) | 101 | 97.3 | 103 | 93 | 112 | 101 | 107 | 110 | 93.5 | 110 | – | 94.2 | 103 | 108 | 111 | 86 | 103 | 106 | 102 | 102 | 97.2 | 119 | 105 | 103 | 109 | 117 | 101 | 116 | 109 | 113 | 102 | 100 | 98.6 | 103 | 102 | 110 | 85.2
